Counter-ions that a name gives are not always drawn. Like-named read-outs stand apart in the source and are kept apart here.
Experiments:
[1] = system: R5-HIV-1Ba-L; experiment: MAGI assay using MAGI/CCR5 cells and R5-HIV-1Ba-L; type: cell-based; conditions: Ba-L (MAGI)
Method: (§1) MAGI-CCR5 cells[18] were maintained in DMEM supplemented with 10% fetal calf serum (FCS: Gemini Bio-Products, West Sacramento, CA), 200 μg/ml G418, 100 μg/ml hygromycin B, and 100 μg/ml zeomycin. The Chinese hamster ovary (CHO) cells expressing CCR5[19] were maintained in Ham’s F-12 medium (GIBCO-BRL, Rockville, MD) supplemented with 10% FCS, 50 U/ml penicillin, and 50 μg/ml streptomycin in the presence of 5 μg/ml blasticidin S hydrochloride. TZM-bl cells were obtained from the NIH AIDS Reagent Program, and were cultured in DMEM with 10% FCS. Peripheral blood mononuclear cells (PBMCs) were isolated from buffy coats of HIV-1 seronegative individuals, and were activated with 10 μg/ml phytohemagglutinin (PHA) prior to use[16]. A laboratory wild-type R5-HIV-1 strain (HIV-1Ba-L)[37] was employed for drug susceptibility assays. AD101 (experimental CCR5 inhibitor) and VVC-resistant HIV clones[7],[8] were provided by Dr. John P. Moore of Cornell University for this study. The clones were propagated with activated PBMCs, and were used for the assays. A clinical HIV-1 strain, HIV-1KP-5pc, and an MVC-resistant isolate, HIV-1KP-5mvcR, were prepared and used for antiviral assays, as previously described[10],[38]. The following reagents (plasmids) for T/F HIV-1 viruses[22],[24] were obtained through the NIH AIDS Reagent Program, Division of AIDS, NIAID, NIH: pCH040.c/2625 (cat# 11740), pCH106.c/2633 (cat# 11743), pTHRO.c/2626 (cat# 11745), and pCH058.c/2960 (cat# 11856), from Dr. John Kappes and Dr. Christina Ochsenbauer.
(§2) Antiviral assays using PHA-PBMCs (p24 assay) were conducted as previously reported[16],[38]. In brief, PHA-PBMCs (1 × 10^6/ml) were exposed to 50 TCID50 of HIV-1Ba-L or drug-resistant HIV-1 infectious clones in the presence or absence of various concentrations of drugs; 10-fold serial dilutions were performed in 96-well microculture plates. The amount of p24 antigens produced by the cells was determined on day 7 in the culture via a commercially available ELISA kit (PerkinElmer). The p24 production level in drug-free control cell cultures was used as the reference. […] Antiviral assays using MAGI-CCR5 cells (MAGI assay) were conducted as previously reported[16],[39]. Single-round virus infection assays using TZM-bl cells infected with R5-HIV-1s (HIV-1YU2, HIV-1KP-5pc, and HIV-1KP-5mvcR)[10] were also conducted as previously described.

[2] = system: pCH040.c/2625; experiment: MAGI assay, T/F HIV-1 clone pCH040.c/2625; type: cell-based; conditions: Human immunodeficiency virus 1, MAGI
Text: (§3) We also examined the activity of GRL-compounds against Transmitter/founder (T/F) HIV-1 viruses. T/F viruses are involved in the initial infection. It is considered that T/F viruses virtually always use CCR5 rather than CXCR4 and infect T cells but not macrophages because […] of CD4 is needed to mediate virus entry for the initial transmission[20]–[24]. […] We obtained four HIV-1 T/F infectious clones. We determined the antiviral activity of GRL-117C, GRL-10007C and GRL-10018C on these HIV-1 clones using MAGI assay.
as §1, with “A clinical HIV-1 strain, HIV-1KP-5pc, and an MVC-resistant isolate, HIV-1KP-5mvcR, were prepared and used for antiviral assays, as previously described[10],[38].” left out
as §2

[3] = system: pTHRO.c/2626; experiment: MAGI assay, T/F HIV-1 clone pTHRO.c/2626; type: cell-based; conditions: Human immunodeficiency virus 1, MAGI
Text: as §3
as §1, with “A clinical HIV-1 strain, HIV-1KP-5pc, and an MVC-resistant isolate, HIV-1KP-5mvcR, were prepared and used for antiviral assays, as previously described[10],[38].” left out
as §2

[4] = system: D1/85.16 cl.23 (VVC resistant); experiment: microbe, parasite or virus in culture; type: cell-based, HIV-1; conditions: for fold increases of IC50s compared to wild type (CC1/85 cl.7): D1/85.16 cl.23 (VVC resistant) vs CC1/85 cl.7
Method: as §1, §2

[5] = system: CC101.19 cl.7 (AD101 resistant); experiment: microbe, parasite or virus in culture; type: cell-based, HIV-1; conditions: for fold increases of IC50s compared to wild type (CC1/85 cl.7): CC101.19 cl.7 (AD101 resistant) vs CC1/85 cl.7
Method: as §1, §2

[6] = system: pCH0.6.c/2633; experiment: MAGI assay, T/F HIV-1 clone pCH0.6.c/2633; type: cell-based; conditions: Human immunodeficiency virus 1, MAGI
Text: as §3
as §1, with “A clinical HIV-1 strain, HIV-1KP-5pc, and an MVC-resistant isolate, HIV-1KP-5mvcR, were prepared and used for antiviral assays, as previously described[10],[38].” left out
as §2

[7] = system: pCH058.c/2960; experiment: MAGI assay, T/F HIV-1 clone pCH058.c/2960; type: cell-based; conditions: Human immunodeficiency virus 1, MAGI
Text: as §3
as §1, with “A clinical HIV-1 strain, HIV-1KP-5pc, and an MVC-resistant isolate, HIV-1KP-5mvcR, were prepared and used for antiviral assays, as previously described[10],[38].” left out
as §2

[8] = system: CC1/85 cl.7; experiment: Anti-HIV-1 assay, drug-naive clinical strain CC1/85 cl.7; type: cell-based
Method: as §1, §2

[9] = system: CC1/85 cl.6; experiment: Anti-HIV-1 assay, drug-naive clinical strain CC1/85 cl.6; type: cell-based
Method: as §1, §2

[10] = system: R5-HIV-1BaL; experiment: p24 assay using PBMCs and R5-HIV-1BaL; type: cell-based; conditions: Ba-L (PBMCs), day 7
Method: as §1, §2

[11] = system: HIV-1KP-5pc; experiment: TZM-bl single-round infection assay, HIV-1KP-5pc; type: cell-based; conditions: for IC50: KP-5pc, drug-sensitive clinical strain, TZM-bl assay, mean ± SD
Method: as §1, §2

[12] = system: HIV-1KP-5mvcR; experiment: TZM-bl single-round infection assay, MVC-resistant HIV-1KP-5mvcR; type: cell-based; conditions: for activity against MVC-resistant HIV-1 (HIV-1KP-5mvcR): in words, data not shown
Method: as §1, §2

[13] = system: HIV-1YU2; experiment: TZM-bl single-round infection assay, HIV-1YU2; type: cell-based; conditions: Human immunodeficiency virus 1, YU2, drug-sensitive, mean ± SD
Method: as §1, §2

[14] = target: T1, CCR5 (Homo sapiens, UniProt P51681); experiment: Inhibition of 125I-MIP-1α binding to CCR5 (CCR5+ CHO cells)
T1 construct: expressed in transfected cells; host or cells: Chinese hamster ovary (CHO) cells expressing CCR5
T1 sequence (P51681 whole entry): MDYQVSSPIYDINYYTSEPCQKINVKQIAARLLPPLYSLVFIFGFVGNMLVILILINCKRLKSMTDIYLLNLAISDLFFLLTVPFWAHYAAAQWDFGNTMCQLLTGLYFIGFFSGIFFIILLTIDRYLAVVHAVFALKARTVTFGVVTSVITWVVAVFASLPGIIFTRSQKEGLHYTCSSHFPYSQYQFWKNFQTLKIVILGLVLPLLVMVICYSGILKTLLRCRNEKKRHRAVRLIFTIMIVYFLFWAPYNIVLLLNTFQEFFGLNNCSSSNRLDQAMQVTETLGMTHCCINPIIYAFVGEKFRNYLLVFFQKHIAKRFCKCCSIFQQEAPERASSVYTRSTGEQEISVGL
Method: (§4) In order to determine whether GRL derivatives block the binding of CC-chemokines to CCR5, we conducted a CC-chemokine binding inhibition assay using ^125I-labeled CC-chemokines (^125I-RANTES, ^125I-MIP-1α, and ^125I-MIP-1β) and CCR5 expressing cells.
(§5) CCR5^+ CHO cells were incubated with (A) ^125I-MIP-1α, (B) ^125I-MIP-1β, and (C) ^125I-RANTES (200 ng/ml) in the presence or absence of varying concentrations of CCR5 inhibitors. Data are shown as means ± s.d. of three independent experiments.
(§6) The inhibition of the binding of ^125I-labeled CC-chemokines ([^125I] RANTES, [^125I] MIP-1α, or [^125I] MIP-1β) to CCR5 by various CCR5 inhibitors was measured as previously described. Calcium flux inhibition assays were also performed with CCR5 inhibitors, and were carried out with the Fluo-4 Direct^TM calcium reagent (Invitrogen); assays were conducted as previously described with minor modifications. In brief, CHO-CCR5 cells (5 × 10^5 cells) were exposed to Fluo-4 Direct^TM calcium reagent for 60 min at 37 °C in RPMI containing 5% FCS. Cells were then incubated with the test compound for 30 min at varying concentrations. Subsequently, cells were exposed to either MIP-1α, MIP-1β, or RANTES at 200 ng/ml. Relative increases in cytosolic Ca^2+ levels after chemokine exposure were determined with flow cytometry (FACSCalibur, BD Biosciences), and IC50 values of cytosolic Ca^2+ mobilization (Ca^2+ flux) were compared with the Ca^2+ flux level in drug-free control samples.

[15] = target: T1, CCR5; experiment: Inhibition of 125I-RANTES binding to CCR5 (CCR5+ CHO cells)
Method: as §4, §5, §6

[16] = target: T1, CCR5; experiment: Inhibition of 125I-MIP-1β binding to CCR5 (CCR5+ CHO cells)
Method: as §4, §5, §6

[17] = Human immunodeficiency virus 1, BAL
[18] = Human immunodeficiency virus 1, D1/85.16 cl.23 (VVC resistant)
[19] = Human immunodeficiency virus 1, CC101.19 cl.7 (AD101 resistant)
[20] = Human immunodeficiency virus 1, CC1/85 cl.6, drug naive R5-HIV-1 clinical strain, read-out: IC50
[21] = Human immunodeficiency virus 1, BAL, PBMC, 168 h
[22] = Human immunodeficiency virus 1, TZM-bl

SMILES | IC50 [1, 17] | IC90 [1, 17] | IC50 [2] | IC50 [3] | IC90 ([4]; Human immunodeficiency virus 1) | IC50 [4, 18] | IC90 ([5]; Human immunodeficiency virus 1) | IC50 [5, 19] | IC50 [6] | IC50 [7] | IC50 ([8]; Human immunodeficiency virus 1) | IC90 ([8]; Human immunodeficiency virus 1) | IC50 [9, 20] | IC50 [10, 21] | IC90 [10, 21] | activity against MVC-resistant HIV-1 (HIV-1KP-5mvcR) [12] | EC50 [14] | EC50 [15] | EC50 [16] | fold increases of IC50s compared to wild type (CC1/85 cl.7) [4] | other results
CCCCN1C(=O)[C@@H]([C@H](O)C2CCCCC2)NC(=O)C12CCN(Cc1ccc(Oc3ccc(C(=O)O)cc3)cc1)CC2 [APL, 4-[4-[(3 R)-1-butyl-3-[(1 R)cyclohexylhydroxymethyl]-2,5-dioxo-1,4,9-triazaspiro [5.5]undec-9 ylmethyl]phenoxy] benzoic acid hydrochloride] | 0.2 nM | 4.9 nM | 0.7 ± 0.2 nM | 0.9 ± 0.1 nM | 98.6 nM | 8.6 nM | 200 nM | 16.3 nM | 1.9 ± 0.2 nM | 1.7 ± 0.2 nM | 1.8 nM | 11.3 nM | 1.5 nM | 2.6 nM | 13.4 nM |  |  |  |  |  | 
CCCCOCCOc1ccc(-c2ccc3c(c2)/C=C(/C(=O)Nc2ccc([S@@+]([O-])Cc4cncn4CCC)cc2)CCCN3CC(C)C)cc1 [CVC, cenicriviroc] |  |  |  |  |  |  |  |  |  |  |  |  |  |  |  |  |  |  |  |  | IC90 [11, 22]: 105 nM; IC50 [11, 22]: 4.1 nM; IC50 [11]: 4.9 ± 2.2 nM; IC50 [12, 22]: 260 ± 352 nM; IC90 [12, 22]: > 300 nM; fold change of IC50 values between HIV-1KP-5pc (wild type) and HIV-1KP-5mvcR ([12]; KP-5mvcR vs KP-5pc / wild type): 63 fold; IC50 [13]: 1.1 ± 0.7 nM; IC90 [13]: 6.2 nM
Cc1cccc(C)c1C(=O)N1C2CCC1CC(N1CCN(C(C)c3ccc(C(F)(F)F)cc3)C(C)C1)C2 (stereo not drawn) [GRL-10007C] | 1.4 nM | 9.5 nM | 3.1 ± 0.3 nM | 3.2 ± 0.4 nM | 536 nM | 56.9 nM | 472 nM | 41.1 nM | 5.3 ± 3.4 nM | 6.1 ± 3.2 nM | 15.8 nM | 80.3 nM |  | 16.9 nM | 126 nM | failed to demonstrate activity | 1.1 nM | 628 nM | 2.5 nM |  | binding of 125I-RANTES remaining ([15]; in the presence of 1 μM compound): more than 40%; IC50 ([9]; Human immunodeficiency virus 1): 12.5 nM
C=CCN(C(=O)OCC1COC2OCCC12)C1CC2CCC(C1)N2CCC(C)(CN(C)S(=O)(=O)c1ccccc1)c1ccccc1 (stereo not drawn) [GRL-10018C] | 2.9 nM | 27.5 nM | 7.2 ± 1.4 nM | 3.9 ± 1.1 nM | 642 nM | 61.3 nM | 553 nM | 52.5 nM | 8.8 ± 4.2 nM | 8 ± 2.3 nM | 4.9 nM | 34.9 nM |  | 18.7 nM | 155 nM | failed to demonstrate activity | 0.3 nM | 17 nM | 0.4 nM | (×12.5) fold | fold increases of IC50s compared to wild type (CC1/85 cl.7) [5]: (×11) fold
CCO/N=C(\c1ccc(Br)cc1)C1CCN(C2(C)CCN(C(=O)c3c(C)cc[n+]([O-])c3C)CC2)CC1 [SCH-C] | 4.8 nM | 15.9 nM |  |  | > 1000 nM | 412 nM | > 1000 nM | > 1000 nM |  |  | 6.1 nM | 67.7 nM | 5.2 nM | 13.9 nM | 97.2 nM |  |  |  |  |  | 
Cc1ccc(-c2ccc3c(c2)C=C(C(=O)Nc2ccc(C[N+](C)(C)C4CCOCC4)cc2)CCC3)cc1.[Cl-] [TAK-779] |  |  |  |  |  |  |  |  |  |  |  |  |  |  |  |  |  |  |  | (×5.9) fold | IC50 [1]: 15.7 nM; IC90 [1]: 88.1 nM; IC50 ([4]; D1/85.16 cl.23 (VVC resistant), read-out: IC50): 166 nM; IC90 ([4]; D1/85.16 cl.23 (VVC resistant), read-out: IC90): 747 nM; fold increases of IC50s compared to wild type (CC1/85 cl.7) [5]: (×14) fold; IC50 ([5]; CC101.19 cl.7 (AD101 resistant), read-out: IC50): 400 nM; IC90 ([5]; CC101.19 cl.7 (AD101 resistant), read-out: IC90): > 1000 nM; IC50 ([8]; CC1/85 cl.7, drug naive R5-HIV-1 clinical strain, read-out: IC50): 28.3 nM; IC90 ([8]; CC1/85 cl.7, drug naive R5-HIV-1 clinical strain, read-out: IC90): 101 nM; IC50 ([9]; CC1/85 cl.6, drug naive R5-HIV-1 clinical strain, read-out: IC50): 22.7 nM; IC50 [10]: 31.6 nM; IC90 [10]: 187 nM
